In general, mortality refers to the share of the test organisms that died.

The source of these data is US9930892B2, “Molecules having pesticidal utility, and intermediates, compositions, and processes, related thereto” (Dow AgroSciences LLC, priority 2016, dated 2018).

The test system of data set [1] is Beet Armyworm (Spodoptera exigua). The data set can be described thus: Bioassay on Beet Armyworm (BAW), 128-well diet tray assay. The data set is classed as in vivo. The conditions noted are these: for BAW % Control (or Mortality) rating: 50 μg/cm^2 on artificial diet, second instar larvae, five to seven days, 25° C.; for mortality at 0.05 µg/cm2 / mortality at 0.5 µg/cm2 / mortality at 5 µg/cm2: Spodoptera exigua, read-out: BAW Percent control (or mortality); for mortality at 0.05 µg/cm2: 0.05 μg/cm^2; for mortality at 0.5 µg/cm2: 0.5 μg/cm^2; for mortality at 5 µg/cm2: 5 μg/cm^2. The method, then: Bioassays on BAW were conducted using a 128-well diet tray assay. One to five second instar BAW larvae were placed in each well (3 mL) of the diet tray that had been previously filled with 1 mL of artificial diet to which 50 μg/cm^2 of the test molecule (dissolved in 50 μL of 90:10 acetone-water mixture) had been applied (to each of eight wells) and then allowed to dry. Trays were covered with a clear self-adhesive cover and held at 25° C., 14:10 light-dark for five to seven days. Percent mortality was recorded for the larvae in each well; activity in the eight wells was then averaged. The results are indicated in the table entitled “Table ABC: Biological Results” (See Table Section).
(§1) Bioassays on BAW and CL were conducted according to the procedures outlined in Example A: Bioassays on Beet Armyworm (“BAW”) and Cabbage Looper (“CL”) using the indicated concentrations.

Data set [2] concerns Cabbage Looper (Trichoplusia ni). The data set can be described thus: Bioassay on Cabbage Looper (CL), 128-well diet tray assay. The data set is classed as in vivo. As to conditions: for CL % Control (or Mortality) rating: 50 μg/cm^2 on artificial diet, second instar larvae, five to seven days, 25° C.; for mortality at 0.05 µg/cm2 / mortality at 0.5 µg/cm2 / mortality at 5 µg/cm2: Trichoplusia ni, read-out: CL Percent control (or mortality); for mortality at 0.05 µg/cm2: 0.05 μg/cm^2; for mortality at 0.5 µg/cm2: 0.5 μg/cm^2; for mortality at 5 µg/cm2: 5 μg/cm^2. The method, then:
Bioassays on CL were conducted using a 128-well diet tray assay. One to five second instar CL larvae were placed in each well (3 mL) of the diet tray that had been previously filled with 1 mL of artificial diet to which 50 μg/cm^2 of the test molecule (dissolved in 50 μL of 90:10 acetone-water mixture) had been applied (to each of eight wells) and then allowed to dry. Trays were covered with a clear self-adhesive cover and held at 25° C., 14:10 light-dark for five to seven days. Percent mortality was recorded for the larvae in each well; activity in the eight wells was then averaged. The results are indicated in the table entitled “Table ABC: Biological Results” (See Table Section).
as §1

On to `CN(NC(=O)c1ccc(/C(F)=C/C(c2cc(Cl)c(Cl)c(Cl)c2)C(F)(F)F)cc1C(F)(F)F)C(=O)NCC(F)(F)F` (centres unmarked) [F1, (Z)-1-methyl-2-(4-(1,4,4,4-tetrafluoro-3-(3,4,5-trichlorophenyl)but-1-en-1-yl)-2-(trifluoromethyl)benzoyl)-N-(2,2,2-trifluoroethyl)hydrazinecarboxamide], for which, in data set [1], the “BAW % Control (or Mortality) rating” value is listed as “A (50-100)”, the mortality at 0.05 µg/cm2 is 100%, the mortality at 0.5 µg/cm2 stood at 100% and the mortality at 5 µg/cm2 worked out at 100%. Further, in data set [2], the “CL % Control (or Mortality) rating” value is recorded as “A (50-100)”, the mortality at 0.05 µg/cm2 came out at 100%, the mortality at 0.5 µg/cm2 was found to be 100% and the mortality at 5 µg/cm2 is 100%.

Consider `O=C(NCC(F)(F)F)NNC(=O)c1ccc(/C(F)=C/C(c2cc(Cl)c(Cl)c(Cl)c2)C(F)(F)F)cc1Br` (centres unmarked) [F2, (Z)-2-(2-bromo-4-(1,4,4,4-tetrafluoro-3-(3,4,5-trichlorophenyl)but-1-en-1-yl)benzoyl)-N-(2,2,2-trifluoroethyl)hydrazinecarboxamide], for which the “BAW % Control (or Mortality) rating” value in data set [1] is reported as “A (50-100)”. Further, the “CL % Control (or Mortality) rating” value in data set [2] is given as “A (50-100)”.

`O=C(NCC(F)(F)F)NNC(=O)c1ccc(/C(F)=C/C(c2cc(Cl)c(Cl)c(Cl)c2)C(F)(F)F)cc1C(F)(F)F` (centres unmarked) [F3, (Z)-2-(4-(1,4,4,4-Tetrafluoro-3-(3,4,5-trichlorophenyl)but-1-en-1-yl)-2-(trifluoromethyl)benzoyl)-N-(2,2,2-trifluoroethyl)hydrazinecarboxamide]: in data set [1], the “BAW % Control (or Mortality) rating” value was “A (50-100)”. Also, the “CL % Control (or Mortality) rating” value in data set [2] was “A (50-100)”.

Turning to `O=C(CCC(F)(F)F)NNC(=O)c1ccc(/C(F)=C/C(c2cc(Cl)c(Cl)c(Cl)c2)C(F)(F)F)cc1C(F)(F)F` (centres unmarked) [F4, (Z)-4-(1,4,4,4-Tetrafluoro-3-(3,4,5-trichlorophenyl)but-1-en-1-yl)-N′-(4,4,4-trifluorobutanoyl)-2-(trifluoromethyl)benzohydrazide], the “BAW % Control (or Mortality) rating” value in data set [1] is given as “A (50-100)”. Moreover, the “CL % Control (or Mortality) rating” value in data set [2] is “A (50-100)”.

For the compound `CN(NC(=O)c1ccc(/C(F)=C/C(c2cc(Cl)c(Cl)c(Cl)c2)C(F)(F)F)cc1C(F)(F)F)C(=O)CCC(F)(F)F` (centres unmarked) [F11, (Z)—N′-Methyl-4-(1,4,4,4-tetrafluoro-3-(3,4,5-trichlorophenyl)but-1-en-1-yl)-N′-(4,4,4-trifluorobutanoyl)-2-(trifluoromethyl)benzohydrazide], in data set [1], the “BAW % Control (or Mortality) rating” value is “A (50-100)”. The “CL % Control (or Mortality) rating” value in data set [2] was “A (50-100)”.

Consider `CC(F)(F)C(/C=C(\F)c1ccc(C(=O)NNC(=O)NCC(F)(F)F)c(C(F)(F)F)c1)c1cc(Cl)c(Cl)c(Cl)c1` (centres unmarked) [F12, (Z)-2-(4-(1,4,4-Trifluoro-3-(3,4,5-trichlorophenyl)pent-1-en-1-yl)-2-(trifluoromethyl)benzoyl)-N-(2,2,2-trifluoroethyl)hydrazinecarboxamide], for which the “BAW % Control (or Mortality) rating” value in data set [1] is listed as “A (50-100)”. The “CL % Control (or Mortality) rating” value in data set [2] was “A (50-100)”.

`CN(NC(=O)CCC(F)(F)F)C(=O)c1ccc(/C(F)=C/C(c2cc(Cl)c(Cl)c(Cl)c2)C(F)(F)F)cc1C(F)(F)F` (centres unmarked) [F13, (Z)—N-methyl-4-(1,4,4,4-tetrafluoro-3-(3,4,5-trichlorophenyl)but-1-en-1-yl)-N′-(4,4,4-trifluorobutanoyl)-2-(trifluoromethyl)benzohydrazide]: the “BAW % Control (or Mortality) rating” value in data set [1] is recorded as “A (50-100)”. Also, the “CL % Control (or Mortality) rating” value in data set [2] is reported as “A (50-100)”.

`C=Cc1c(Cl)cc(C(/C=C(\F)c2ccc(C(=O)NN(C)C(=O)NCC(F)(F)F)c(C(F)(F)F)c2)C(F)(F)F)cc1Cl` (centres unmarked) [F17, (Z)-2-(4-(3-(3,5-Dichloro-4-vinylphenyl)-1,4,4,4-tetrafluorobut-1-en-1-yl)-2-(trifluoromethyl)benzoyl)-1-methyl-N-(2,2,2-trifluoroethyl)hydrazinecarboxamide]: in data set [1], the “BAW % Control (or Mortality) rating” value is recorded as “A (50-100)”. For the same compound, the “CL % Control (or Mortality) rating” value in data set [2] is on record as “A (50-100)”.

On to `CN(NC(=O)c1ccc(/C(F)=C/C(c2cc(Br)c(Cl)c(Br)c2)C(F)(F)F)cc1C(F)(F)F)C(=O)NCC(F)(F)F` (centres unmarked) [F18, (Z)-2-(4-(3-(3,5-Dibromo-4-chlorophenyl)-1,4,4,4-tetrafluorobut-1-en-1-yl)-2-(trifluoromethyl)benzoyl)-1-methyl-N-(2,2,2-trifluoroethyl)hydrazinecarboxamide], for which the “BAW % Control (or Mortality) rating” value in data set [1] is recorded as “A (50-100)”. The “CL % Control (or Mortality) rating” value in data set [2] is given as “A (50-100)”.

For the compound `CN(NC(=O)c1ccc(/C(F)=C/C(c2cc(Cl)c(Cl)c(Cl)c2)C(F)(F)F)cc1C(F)(F)F)S(=O)(=O)CCC(F)(F)F` (centres unmarked) [F19, (Z)-3,3,3-trifluoro-N-methyl-N′-(4-(1,4,4,4-tetrafluoro-3-(3,4,5-trichlorophenyl)but-1-en-1-yl)-2-(trifluoromethyl)benzoyl)propane-1-sulfonohydrazide], the “BAW % Control (or Mortality) rating” value in data set [1] is on record as “A (50-100)”. Moreover, in data set [2], the “CL % Control (or Mortality) rating” value is “A (50-100)”.

On to `O=C(CCC(F)(F)F)NNC(=O)c1ccc(/C(F)=C/C(c2cc(Cl)c(Cl)c(Cl)c2)C(F)(F)F)cc1Cl` (centres unmarked) [F20, (Z)-2-Chloro-4-(1,4,4,4-tetrafluoro-3-(3,4,5-trichlorophenyl)but-1-en-1-yl)-N′-(4,4,4-trifluorobutanoyl)benzohydrazide], for which the “BAW % Control (or Mortality) rating” value in data set [1] was “A (50-100)”. In addition, the “CL % Control (or Mortality) rating” value in data set [2] is “A (50-100)”.

For `O=C(CCC(F)(F)F)NNC(=O)c1ccc(/C(F)=C/C(c2cc(Cl)c(Cl)c(Cl)c2)C(F)(F)F)cc1I` (centres unmarked) [F21, (Z)-2-Iodo-4-(1,4,4,4-tetrafluoro-3-(3,4,5-trichlorophenyl)but-1-en-1-yl)-N′-(4,4,4-trifluorobutanoyl)benzohydrazide], the “BAW % Control (or Mortality) rating” value in data set [1] was “A (50-100)”. The “CL % Control (or Mortality) rating” value in data set [2] is recorded as “A (50-100)”.

With `CN(NC(=O)c1ccc(/C(F)=C/C(c2cc(Cl)c(Br)c(Cl)c2)C(F)(F)F)cc1C(F)(F)F)C(=O)NCC(F)(F)F` (centres unmarked) [F23, (Z)-2-(4-(3-(4-Bromo-3,5-dichlorophenyl)-1,4,4,4-tetratfluorobut-1-en-1-yl)-2-(trifluoromethyl)benzoyl)-1-methyl-N-(2,2,2-trifluoroethyl)hydrazinecarboxamide], the “BAW % Control (or Mortality) rating” value in data set [1] was “A (50-100)”. In data set [2], the “CL % Control (or Mortality) rating” value was “A (50-100)”.

Consider `O=C(NNS(=O)(=O)CCC(F)(F)F)c1ccc(/C(F)=C/C(c2cc(Cl)c(Cl)c(Cl)c2)C(F)(F)F)cc1C(F)(F)F` (centres unmarked) [F24, (Z)-3,3,3-Trifluoro-N′-(4-(1,4,4,4-tetrafluoro-3-(3,4,5-trichlorophenyl)but-1-en-1-yl)-2-(trifluoromethyl)benzoyl)propane-1-sulfonohydrazide], for which the “BAW % Control (or Mortality) rating” value in data set [1] is “A (50-100)”. Besides, the “CL % Control (or Mortality) rating” value in data set [2] is reported as “A (50-100)”.

`Cc1cc(/C(F)=C/C(c2cc(Cl)c(Cl)c(Cl)c2)C(F)(F)F)ccc1C(=O)NN(C)C(=O)NCC(F)(F)F` (centres unmarked) [F28, (Z)-1-Methyl-2-(2-methyl-4-(1,4,4,4-tetrafluoro-3-(3,4,5-trichlorophenyl)but-1-en-1-yl)benzoyl)-N-(2,2,2-trifluoroethyl)hydrazinecarboxamide]: in data set [1], the mortality at 0.05 µg/cm2 was determined as 88%, the mortality at 0.5 µg/cm2 worked out at 100% and the mortality at 5 µg/cm2 was determined as 100%. Also, in data set [2], the mortality at 0.05 µg/cm2 was 100%, the mortality at 0.5 µg/cm2 was determined as 100% and the mortality at 5 µg/cm2 turned out to be 100%.

On to `CC(C)(C)C(=O)NNC(=O)c1ccc(/C(F)=C/C(c2cc(Cl)c(Cl)c(Cl)c2)C(F)(F)F)cc1C(F)(F)F` (centres unmarked) [F29, (Z)—N′-Pivaloyl-4-(1,4,4,4-tetrafluoro-3-(3,4,5-trichlorophenyl)but-1-en-1-yl)-2-(trifluoromethyl)benzohydrazide], for which the “BAW % Control (or Mortality) rating” value in data set [1] was “A (50-100)”. The “CL % Control (or Mortality) rating” value in data set [2] is on record as “A (50-100)”.

For the compound `CN(NC(=O)c1ccc(/C(F)=C/C(c2cc(Cl)c(Cl)c(Cl)c2)C(F)(F)F)cc1)C(=O)NCC(F)(F)F` (centres unmarked) [FC1, (Z)-1-methyl-2-(4-(1,4,4,4-tetrafluoro-3-(3,4,5-trichlorophenyl)but-1-en-1-yl)benzoyl)-N-(2,2,2-trifluoroethyl)hydrazinecarboxamide, reference compound], in data set [1], the mortality at 0.05 µg/cm2 turned out to be 0%, the mortality at 0.5 µg/cm2 is 0% and the mortality at 5 µg/cm2 turned out to be 25%. In data set [2], the mortality at 0.05 µg/cm2 worked out at 0%, the mortality at 0.5 µg/cm2 was 0% and the mortality at 5 µg/cm2 came to 7%.

Take `CN(NC(=O)c1ccc(/C(F)=C/C(c2cc(Cl)c(Cl)c(Cl)c2)C(F)(F)F)c2ccccc12)C(=O)NCC(F)(F)F` (centres unmarked) [PF1, (Z)-1-Methyl-2-(4-(1,4,4,4-tetrafluoro-3-(3,4,5-trichlorophenyl)but-1-en-1-yl)-1-naphthoyl)-N-(2,2,2-trifluoroethyl)hydrazine-1-carboxamide]: the “BAW % Control (or Mortality) rating” value in data set [1] is listed as “A (50-100)”. In addition, the “CL % Control (or Mortality) rating” value in data set [2] is given as “A (50-100)”.
